Consider 23 compounds from patent EP4667458A1 (Kanaph Therapeutics Inc., priority 2023, dated 2024).

The test deals with T1, KRAS^G12C::SOS1 (Homo sapiens, UniProt Q07889).
T1 sequence (Q07889 1-1333): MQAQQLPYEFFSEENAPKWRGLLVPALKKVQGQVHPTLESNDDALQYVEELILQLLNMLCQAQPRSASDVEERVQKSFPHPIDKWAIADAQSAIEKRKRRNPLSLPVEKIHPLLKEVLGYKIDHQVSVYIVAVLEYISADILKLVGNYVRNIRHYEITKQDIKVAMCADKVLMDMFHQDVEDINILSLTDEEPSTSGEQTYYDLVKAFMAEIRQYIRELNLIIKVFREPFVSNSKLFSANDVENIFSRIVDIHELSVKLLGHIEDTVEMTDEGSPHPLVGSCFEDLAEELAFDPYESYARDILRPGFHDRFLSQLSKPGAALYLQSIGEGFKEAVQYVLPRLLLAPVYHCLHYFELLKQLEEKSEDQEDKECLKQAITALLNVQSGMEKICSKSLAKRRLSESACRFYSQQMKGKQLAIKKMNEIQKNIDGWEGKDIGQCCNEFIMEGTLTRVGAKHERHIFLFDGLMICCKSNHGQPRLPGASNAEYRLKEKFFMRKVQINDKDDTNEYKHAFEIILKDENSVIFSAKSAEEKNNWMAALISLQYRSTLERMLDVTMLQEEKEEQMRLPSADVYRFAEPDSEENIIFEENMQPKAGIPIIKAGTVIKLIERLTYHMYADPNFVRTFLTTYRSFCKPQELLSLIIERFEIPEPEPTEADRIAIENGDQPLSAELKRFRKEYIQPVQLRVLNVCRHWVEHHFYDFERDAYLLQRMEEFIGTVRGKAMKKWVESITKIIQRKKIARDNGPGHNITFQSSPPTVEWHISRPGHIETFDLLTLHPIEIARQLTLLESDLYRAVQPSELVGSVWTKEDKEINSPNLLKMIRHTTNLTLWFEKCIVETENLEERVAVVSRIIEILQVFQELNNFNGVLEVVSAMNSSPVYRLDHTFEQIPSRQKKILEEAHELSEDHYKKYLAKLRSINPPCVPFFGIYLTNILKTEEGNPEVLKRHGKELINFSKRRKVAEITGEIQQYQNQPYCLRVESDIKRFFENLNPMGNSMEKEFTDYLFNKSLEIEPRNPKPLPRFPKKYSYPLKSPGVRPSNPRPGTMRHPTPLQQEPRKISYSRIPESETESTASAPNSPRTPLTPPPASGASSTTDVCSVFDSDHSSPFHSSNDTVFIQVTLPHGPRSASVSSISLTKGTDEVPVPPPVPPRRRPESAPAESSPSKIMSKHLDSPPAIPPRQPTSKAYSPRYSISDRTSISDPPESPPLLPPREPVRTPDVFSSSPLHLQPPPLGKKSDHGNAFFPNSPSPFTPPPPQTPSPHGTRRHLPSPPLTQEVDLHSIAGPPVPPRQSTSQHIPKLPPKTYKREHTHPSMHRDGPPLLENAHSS
Description: KRAS G12C::SOS1 protein-protein interaction (PPI) inhibition assay (HTRF binding kit). A general note: In TR-FRET formats the signal depends on donor and acceptor labels being close together.
One may read the IC50 as the concentration that gives 50% inhibition. Read a high IC50 as a need for much substance. For `C[C@@H](NC(=O)c1ccc(=O)n(-c2cccc(-c3cnnn3C)c2)c1)c1cccc(C(F)(F)CO)c1F` [Example 335, N-[(1R)-1-[3-(1,1-difluoro-2-hydroxy-ethyl)-2-fluoro-phenyl]ethyl]-1-[3-(3-methyltriazol-4-yl)phenyl]-6-oxo-pyridine-3-carboxamide], the half-maximal inhibitory concentration (IC50) is < 1000 nM.
Then `C[C@@H](NC(=O)c1ccc(=O)n(-c2cccc(-c3nccs3)c2)n1)c1cccc(C(F)(F)CO)c1F` [Example 336, N-[(1R)-1-[3-(1,1-difluoro-2-hydroxy-ethyl)-2-fluoro-phenyl]ethyl]-6-oxo-1-(3-thiazol-2-ylphenyl)pyridazine-3-carboxamide], with < 1000 nM.
Take `C[C@@H](NC(=O)c1ccc(=O)n(-c2cccc(-c3nccs3)c2)n1)c1cc(N)cc(C(F)(F)F)c1` [Example 337, N-[(1R)-1-[3-amino-5-(trifluoromethyl)phenyl]ethyl]-6-oxo-1-(3-thiazol-2-ylphenyl)pyridazine-3-carboxamide]: the IC50 is < 1000 nM.
Then `C[C@@H](NC(=O)c1ccc(=O)n(-c2cccc(-c3cccnc3)c2)n1)c1cc(N)cc(C(F)(F)F)c1` [Example 338, N-[(1R)-1-[3-amino-5-(trifluoromethyl)phenyl]ethyl]-6-oxo-1-[3-(3-pyridyl)phenyl]pyridazine-3-carboxamide], with < 1000 nM.
In the case of `C[C@@H](NC(=O)c1ccc(=O)n(-c2cccc(-c3cncs3)c2)n1)c1cccc(C(F)(F)CO)c1F` [Example 339, N-[(1R)-1-[3-(1,1-difluoro-2-hydroxy-ethyl)-2-fluorophenyl]ethyl]-6-oxo-1-(3-thiazol-5-ylphenyl)pyridazine-3-carboxamide], the half-maximal inhibitory concentration (IC50) is < 1000 nM.
In the case of `C[C@@H](NC(=O)c1ccc(=O)n(-c2cccc(-c3cnn(C)c3)c2)n1)c1cccc(C(F)(F)CO)c1F` [Example 340, N-[(1R)-1-[3-(1,1-difluoro-2-hydroxy-ethyl)-2-fluoro-phenyl]ethyl]-1-[3-(1-methylpyrazol-4-yl)phenyl]-6-oxo-pyridazine-3-carboxamide] it was < 1000 nM; in that of `C[C@@H](NC(=O)c1ccc(=O)n(-c2cccc(-c3cncs3)c2)n1)c1cc(N)cc(C(F)(F)F)c1` [Example 341, N-[(1R)-1-[3-amino-5-(trifluoromethyl)phenyl]ethyl]-6-oxo-1-(3-thiazol-5-ylphenyl)pyridazine-3-carboxamide], < 1000 nM.
As for `C[C@@H](NC(=O)c1ccc(=O)n(-c2cccc(-c3ccno3)c2)n1)c1cc(N)cc(C(F)(F)F)c1` [Example 342, N-[(1R)-1-[3-amino-5-(trifluoromethyl)phenyl]ethyl]-1-(3-isoxazol-5-ylphenyl)-6-oxo-pyridazine-3-carboxamide], the IC50 was < 1000 nM.
In the case of `C[C@@H](NC(=O)c1ccc(=O)n(-c2cccc(-c3cnco3)c2)n1)c1cc(N)cc(C(F)(F)F)c1` [Example 343, N-[(1R)-1-[3-amino-5-(trifluoromethyl)phenyl]ethyl]-1-(3-oxazol-5-ylphenyl)-6-oxo-pyridazine-3-carboxamide] it was < 1000 nM; in that of `C[C@@H](NC(=O)c1ccc(=O)n(-c2cccc(-c3ccn(C(F)F)n3)c2)n1)c1cc(N)cc(C(F)(F)F)c1` [Example 344, N-[(1R)-1-[3-amino-5-(trifluoromethyl)phenyl]ethyl]-1-[3-[1-(difluoromethyl)pyrazol-3-yl]phenyl]-6-oxo-pyridazine-3-carboxamide], < 1000 nM.
In the case of `C[C@@H](NC(=O)c1ccc(=O)n(-c2cccc(-c3ccn(C(F)F)n3)c2)n1)c1cccc(C(F)(F)CO)c1F` [Example 345, N-[(1R)-1-[3-(1,1-difluoro-2-hydroxy-ethyl)-2-fluoro-phenyl]ethyl]-1-[3-[1-(difluoromethyl)pyrazol-3-yl]phenyl]-6-oxo-pyridazine-3-carboxamide] it was < 1000 nM; in that of `C[C@@H](NC(=O)c1ccc(=O)n(-c2cccc(-c3nnnn3C)c2)n1)c1cc(N)cc(C(F)(F)F)c1` [Example 347, N-[(1R)-1-[3-amino-5-(trifluoromethyl)phenyl]ethyl]-1-[3-(1-methyltetrazol-5-yl)phenyl]-6-oxo-pyridazine-3-carboxamide], < 1000 nM.
Regarding `C[C@@H](NC(=O)c1ccc(=O)n(-c2cccc(-c3nncn3C)c2)c1)c1cc(N)cc(C(F)(F)F)c1` [Example 348, N-[(1R)-1-[3-amino-5-(trifluoromethyl)phenyl]ethyl]-1-[3-(4-methyl-1,2,4-triazol-3-yl)phenyl]-6-oxo-pyridine-3-carboxamide], the IC50 was < 1000 nM.
Turning to `C[C@@H](NC(=O)c1ccc(=O)n(-c2cccc(-c3nnnn3C)c2)c1)c1cc(N)cc(C(F)(F)F)c1` [Example 349, N-[(1R)-1-[3-amino-5-(trifluoromethyl)phenyl]ethyl]-1-[3-(1-methyltetrazol-5-yl)phenyl]-6-oxo-pyridine-3-carboxamide], the IC50 is < 1000 nM.
In the case of `Cc1nnn(C)c1-c1cccc(-n2nc(C(=O)N[C@H](C)c3cc(N)cc(C(F)(F)F)c3)ccc2=O)c1` [Example 350, N-[(1R)-1-[3-amino-5-(trifluoromethyl)phenyl]ethyl]-1-[3-(3,5-dimethyltriazol-4-yl)phenyl]-6-oxo-pyridazine-3-carboxamide] it was < 1000 nM.
Take `C[C@@H](NC(=O)c1ccc(=O)n(-c2cccc(-c3cccc(=O)n3C)c2)n1)c1cc(N)cc(C(F)(F)F)c1` [Example 351, N-[(1R)-1-[3-amino-5-(trifluoromethyl)phenyl]ethyl]-1-[3-(1-methyl-6-oxo-2-pyridyl)phenyl]-6-oxo-pyridazine-3-carboxamide]: the IC50 was < 1000 nM.
In the case of `C[C@@H](NC(=O)c1ccc(=O)n(-c2ccc(F)cc2F)n1)c1cccc(C(F)(F)CO)c1F` [Example 352, N-[(1R)-1-[3-(1,1-difluoro-2-hydroxy-ethyl)-2-fluoro-phenyl]ethyl]-1-(2,4-difluorophenyl)-6-oxo-pyridazine-3-carboxamide] it was < 1000 nM; in that of `C[C@@H](NC(=O)c1ccc(=O)n(-c2cccc(C(=O)N(C)C)c2F)n1)c1cccc(C(F)(F)CO)c1F` [Example 353, N-[(1R)-1-[3-(1,1-difluoro-2-hydroxy-ethyl)-2-fluoro-phenyl]ethyl]-1-[3-(dimethylcarbamoyl)-2-fluoro-phenyl]-6-oxo-pyridazine-3-carboxamide], < 1000 nM; in that of `C[C@@H](NC(=O)c1ccc(=O)n(-c2cccc(C(=O)N(C)C)c2F)n1)c1cc(N)cc(C(F)(F)F)c1` [Example 354, N-[(1R)-1-[3-amino-5-(trifluoromethyl)phenyl]ethyl]-1-[3-(dimethylcarbamoyl)-2-fluoro-phenyl]-6-oxo-pyridazine-3-carboxamide], < 1000 nM.
Then `C[C@@H](NC(=O)c1ccc(=O)n(-c2cccc(F)c2F)n1)c1cccc(C(F)(F)CO)c1F` [Example 355, N-[(1R)-1-[3-(1,1-difluoro-2-hydroxy-ethyl)-2-fluoro-phenyl]ethyl]-1-(2,3-difluorophenyl)-6-oxo-pyridazine-3-carboxamide], with < 1000 nM; and `C[C@@H](NC(=O)c1ccc(=O)n(-c2cc(F)ccc2F)n1)c1cccc(C(F)(F)CO)c1F` [Example 356, N-[(1R)-1-[3-(1,1-difluoro-2-hydroxy-ethyl)-2-fluoro-phenyl]ethyl]-1-(2,5-difluorophenyl)-6-oxo-pyridazine-3-carboxamide], with < 1000 nM.
`C[C@@H](NC(=O)c1ccc(=O)n(-c2c(F)cccc2F)n1)c1cccc(C(F)(F)CO)c1F` [Example 357, N-[(1R)-1-[3-(1,1-difluoro-2-hydroxy-ethyl)-2-fluoro-phenyl]ethyl]-1-(2,6-difluorophenyl)-6-oxo-pyridazine-3-carboxamide]: the IC50 is 1000 to 10000 nM.
As to `C[C@@H](NC(=O)c1ccc(=O)n(-c2cccc(-c3cnnn3C)c2F)n1)c1cccc(C(F)(F)CO)c1F` [Example 358, N-[(1R)-1-[3-(1,1-difluoro-2-hydroxy-ethyl)-2-fluoro-phenyl]ethyl]-1-[2-fluoro-3-(3-methyltriazol-4-yl)phenyl]-6-oxo-pyridazine-3-carboxamide], the IC50 was < 1000 nM.
